Patent publication US12516016B2, “GPX4 inhibitors, pharmaceutical compositions thereof, and their use for treating GPX4-mediated diseases” (EUBULUS BIOTHERAPEUTICS (HONG KONG) LIMITED, priority 2020, dated 2026)

system: hepatocellular carcinoma cell line Hub-7; test: Cell proliferation assay (CELL-TITER GLO cell viability); format: cell-based; conditions: 24 h, Hub-7 cells, 24 h incubation, read-out: Inhibition of Cell Proliferation EC50
How it was run: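 […] cells (4,000/well) seeded overnight, then exposed 24 h to compound from 10 μM in 3-fold serial dilutions. Viability read by CELL-TITER GLO luminescence; EC50 values derived.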

First: C#CC(=O)N(c1ccc(CO)cc1)C(C(=O)NC(C)(C)C)c1cccc(N)c1 (centres unmarked) [A26, N-(1-(3-Aminophenyl)-2-(tert-butylamino)-2-oxoethyl)-N-(4-(hydroxymethyl)-phenyl)propiolamide]
Second: C#CC(=O)N(c1ccc(OC)cc1)C(C(=O)NC(C)(C)C)c1cccc(N)c1 (centres unmarked) [A29, N-(1-(3-Aminophenyl)-2-(tert-butylamino)-2-oxoethyl)-N-(4-methoxyphenyl)-propiolamide]
The EC50 of the first is higher: 2 to 10 µM for the first, 0.5 to 2 µM for the second.

`C#CC(=O)N(c1ccn2cnnc2c1)C1(C(=O)NCc2ccccc2)CCOCC1` [A163, 4-(N-([1,2,4]Triazolo[4,3-a]pyridin-7-yl)propiolamido)-N-benzyltetrahydro-2H-pyran-4-carboxamide] and `C#CC(=O)N(c1ccc2ncn(C)c2c1)C1(C(=O)NCc2ccccc2)CCOCC1` [A154, N-Benzyl-4-(N-(1-methyl-1H-benzo[d]imidazol-6-yl)propiolamido)tetrahydro-2H-pyran-4-carboxamide] fall in the same range of EC50: 0.5 to 2 µM for the first, 0.5 to 2 µM for the second.

First: C#CC(=O)N(c1cccc(S(C)(=O)=O)c1)C(C(=O)NC(C)(C)C)c1ccc(N)cc1 (centres unmarked) [A6, N-(1-(4-Aminophenyl)-2-(tert-butylamino)-2-oxoethyl)-N-(3-(methylsulfonyl)phenyl)propiolamide]
Second: C#CC(=O)N(c1cccc(OC)c1)C(C(=O)NC(C)(C)C)c1ccc(N)cc1 (centres unmarked) [A7, N-(1-(4-Aminophenyl)-2-(tert-butylamino)-2-oxoethyl)-N-(3-methoxyphenyl)-propiolamide]
The EC50 of the first is higher: 2 to 10 µM for the first, 0.1 to 0.5 µM for the second.

`C#CC(=O)N(c1cccc(C(N)=O)c1)C(C(=O)NCc1ccccc1)c1cccc(N)c1` (centres unmarked) [A47, 3-(N-(1-(3-Aminophenyl)-2-(benzylamino)-2-oxoethyl)propiolamido)-benzamide] and `C#CC(=O)N(c1cccc(C(N)=O)c1)C(C(=O)NCc1ccccc1)c1ccc(N)cc1` (centres unmarked) [A62, 3-(N-(1-(4-Aminophenyl)-2-(benzylamino)-2-oxoethyl)propiolamido)-benzamide] cannot be ordered by EC50: greater than 10 µM for the first, greater than 10 µM for the second.

`C#CC(=O)N(c1cccc(C#N)c1)C(C(=O)NCc1ccccc1)c1ccccc1` (centres unmarked) [A100, N-(2-(Benzylamino)-2-oxo-1-phenylethyl)-N-(3-cyanophenyl)propiolamide] and `C#CC(=O)N(c1cccc(S(C)(=O)=O)c1)C(C(=O)NCc1ccccc1)c1ccccc1` (centres unmarked) [A92, N-(2-(Benzylamino)-2-oxo-1-phenylethyl)-N-(3-(methylsulfonyl)-phenyl)-propiolamide] cannot be ordered by EC50: no more than 0.1 µM for the first, 0.1 to 0.5 µM for the second.

`C#CC(=O)N(c1cccc(NC(C)=O)c1)C(C(=O)NCc1ccccc1)c1ccc(N)cc1` (centres unmarked) [A63, N-(3-Acetamidophenyl)-N-(1-(4-aminophenyl)-2-(benzylamino)-2-oxoethyl)-propiolamide] and `C#CC(=O)N(c1cccc(O)c1)C(C(=O)NCc1ccccc1)c1ccc(N)cc1` (centres unmarked) [A58, N-(1-(4-Aminophenyl)-2-(benzylamino)-2-oxoethyl)-N-(3-hydroxyphenyl)-propiolamide] fall in the same range of EC50: 2 to 10 µM for the first, 2 to 10 µM for the second.

`C#CC(=O)N(c1cccc(Cl)c1)C1(C(=O)NCc2ccccc2)CCCCC1` [A101, N-Benzyl-1-(N-(3-chlorophenyl)propiolamido)cyclohexanecarboxamide] and `C#CC(=O)N(c1cccc(Cl)c1)C1(C(=O)NCc2ccccc2)CCCC(C(=O)OC)C1` (centres unmarked) [A173, Methyl 3-(benzylcarbamoyl)-3-(N-(3-chlorophenyl)propiolamido)cyclohexane-carboxylate] cannot be ordered by EC50: no more than 0.1 µM for the first, no more than 0.1 µM for the second.

First: C#CC(=O)N(C1CCC1)C1(C(=O)NCc2ccccc2)CCCC(C(=O)OC)C1 (centres unmarked) [A168, Methyl 3-(benzylcarbamoyl)-3-(N-cyclobutylpropiolamido)cyclohexane-1-carboxylate]
Second: C#CC(=O)N(CCc1ccccc1)C1(C(=O)NCc2ccccc2)CCCC(C(=O)O)C1 (centres unmarked) [A169, 3-(Benzylcarbamoyl)-3-(N-phenethylpropiolamido)cyclohexane-1-carboxylic acid]
The EC50 of the first is lower: 0.5 to 2 µM for the first, greater than 10 µM for the second.

`C#CC(=O)N(c1ccc2c(c1)OCO2)C(C(=O)NCc1ccccc1)c1ccccc1` (centres unmarked) [A96, N-(Benzo[d][1,3]dioxol-5-yl)-N-(2-(benzylamino)-2-oxo-1-phenylethyl)-propiolamide] and `C#CC(=O)N(c1cc(Cl)ccc1I)C(C(=O)NCc1ccccc1)c1ccccc1` (centres unmarked) [A91, N-(2-(Benzylamino)-2-oxo-1-phenylethyl)-N-(5-chloro-2-iodophenyl)-propiolamide] cannot be ordered by EC50: no more than 0.1 µM for the first, no more than 0.1 µM for the second.

Compared with `C=C(F)C(=O)N(c1ccc2c(cnn2C)c1)C1(C(=O)NCc2ccccc2)CCOCC1` [B9, N-Benzyl-4-(2-fluoro-N-(1-methyl-1H-indazol-5-yl)acrylamido)tetrahydro-2H-pyran-4-carboxamide], `Cn1ncc2cc(N(C(=O)CCl)C3(C(=O)NCc4ccccc4)CCOCC3)ccc21` [C21, N-Benzyl-4-(2-chloro-N-(1-methyl-1H-indazol-5-yl)acetamido)tetrahydro-2H-pyran-4-carboxamide] is lower in EC50: greater than 10 µM for the first, 0.5 to 2 µM for the second. The second is the more potent here.

`C=CC(=O)N(Cc1cccc(O)c1)C1(C(=O)NCc2ccccc2)CCOCC1` [B7, N-Benzyl-4-(N-(3-hydroxybenzyl)acrylamido)tetrahydro-2H-pyran-4-carboxamide] and `O=C(C#CCO)N(c1cccc(Cl)c1)C1(C(=O)NCc2ccccc2)CCOCC1` [A129, N-Benzyl-4-(N-(3-chlorophenyl)-4-hydroxybut-2-ynamido)tetrahydro-2H-pyran-4-carboxamide] cannot be ordered by EC50: greater than 10 µM for the first, greater than 10 µM for the second.

First: C#CC(=O)N(c1ccc(NC(C)=O)cc1)C(C(=O)NC(C)(C)C)c1cccc(N)c1 (centres unmarked) [A23, N-(4-Acetamidophenyl)-N-(1-(3-aminophenyl)-2-(tert-butylamino)-2-oxoethyl)-propiolamide]
Second: C#CC(=O)N(c1ccc(NS(C)(=O)=O)cc1)C(C(=O)NC(C)(C)C)c1cccc(N)c1 (centres unmarked) [A24, N-(1-(3-Aminophenyl)-2-(tert-butylamino)-2-oxoethyl)-N-(4-(methyl-sulfonamido)phenyl)propiolamide]
The EC50 of the first is lower: 2 to 10 µM for the first, greater than 10 µM for the second.

`C#CC(=O)N(c1cccc(-c2ccn(C)n2)c1)C1(C(=O)NCc2ccccc2)CCOCC1` [A136, N-Benzyl-4-(N-(3-(1-methyl-1H-pyrazol-3-yl)phenyl)propiolamido)tetrahydro-2H-pyran-4-carboxamide] and `C#CC(=O)N(c1ccc(Cl)c(Cl)c1)C1(C(=O)NCc2ccccc2)CCOCC1` [A108, N-Benzyl-4-(N-(3,4-dichlorophenyl)propiolamido)tetrahydro-2H-pyran-4-carboxamide] cannot be ordered by EC50: 0.1 to 0.5 µM for the first, no more than 0.1 µM for the second.

First: C#CC(=O)N(c1cccc(Cl)c1)C1(C(=O)NCC(=O)NCc2ccccc2C#N)CCOCC1 [A189, 4-(N-(3-Chlorophenyl)propiolamido)-N-(2-((2-cyanobenzyl)amino)-2-oxoethyl)-tetrahydro-2H-pyran-4-carboxamide]
Second: C#CC(=O)N(c1cccc(Cl)c1)C1(C(=O)NCC(=O)OCC)CCOCC1 [A191, Ethyl 2-(4-(N-(3-chlorophenyl)propiolamido)tetrahydro-2H-pyran-4-carboxamido)acetate]
The EC50 of the first is lower: 0.1 to 0.5 µM for the first, 0.5 to 2 µM for the second. The first is the more potent here.

`C#CC(=O)N(c1cc(Cl)ccc1F)C(C(=O)NCc1ccccc1)c1ccc(N)cc1` (centres unmarked) [A57, N-(1-(4-Aminophenyl)-2-(benzylamino)-2-oxoethyl)-N-(5-chloro-2-fluoro-phenyl)propiolamide] and `C#CC(=O)N(c1cccc(Cl)c1F)C(C(=O)NCc1ccccc1)c1ccc(N)cc1` (centres unmarked) [A123] cannot be ordered by EC50: no more than 0.1 µM for the first, no more than 0.1 µM for the second.

Compared with `CC(C)N(C(=O)CCl)C(C(=O)NCCc1ccccc1)c1cccs1` (centres unmarked) [C1, 2-chloro-N-isopropyl-N-(2-oxo-2-(phenethylamino)-1-(thiophen-2-yl)ethyl)acetamide], `O=C(NCCc1ccccc1)C(c1ccc([N+](=O)[O-])cc1)N(Cc1ccccc1)C(=O)CCl` (centres unmarked) [C12, N-Benzyl-2-chloro-N-(1-(4-nitrophenyl)-2-oxo-2-(phenethylamino)ethyl)-acetamide] is lower in EC50: greater than 10 µM for the first, 2 to 10 µM for the second.

`C#CC(=O)N(c1ccc2[nH]ncc2c1)C1(C(=O)NCc2ccccc2)CCOCC1` [A150, 4-(N-(1H-Indazol-5-yl)propiolamido)-N-benzyltetrahydro-2H-pyran-4-carboxamide] and `C#CC(=O)N(c1ccc2c(c1)C(=O)OC2)C1(C(=O)NCc2ccccc2)CCOCC1` [A149, N-Benzyl-4-(N-(3-oxo-1,3-dihydroisobenzofuran-5-yl)propiolamido)tetrahydro-2H-pyran-4-carboxamide] cannot be ordered by EC50: 0.1 to 0.5 µM for the first, no more than 0.1 µM for the second.

`C#CC(=O)N(c1ccc2c(cnn2C)c1)C1(C(=O)NCc2ccccc2)CCC(=O)CC1` [A164, N-Benzyl-1-(N-(1-methyl-1H-indazol-5-yl)propiolamido)-4-oxocyclohexane-1-carboxamide] and `COc1ccc(N(C(=O)CCl)C2(C(=O)NCc3ccccc3)CCC(F)(F)CC2)cc1Cl` [C27, N-Benzyl-1-(2-chloro-N-(3-chloro-4-methoxyphenyl)acetamido)-4,4-difluoro-cyclohexane-1-carboxamide] cannot be ordered by EC50: no more than 0.1 µM for the first, no more than 0.1 µM for the second.

`C#CC(=O)N(c1ccc(OC)c(Cl)c1)C(C(=O)NCc1ccccc1)c1cccc(N)c1` (centres unmarked) [A34, N-(1-(3-Aminophenyl)-2-(benzylamino)-2-oxoethyl)-N-(3-chloro-4-methoxy-phenyl)propiolamide] and `C#CC(=O)N(c1ccc(Cl)cc1)C(C(=O)NCc1ccccc1)c1ccc(N)cc1` (centres unmarked) [A52, N-(2-(benzylamino)-1-(4-aminophenyl)-2-oxoethyl)-N-(4-chlorophenyl)propiolamide] cannot be ordered by EC50: no more than 0.1 µM for the first, no more than 0.1 µM for the second.

Going from `C#CC(=O)N(c1ccc(C(=O)OC)cc1)C(C(=O)NC(C)(C)C)c1ccc(N)cc1` (centres unmarked) [A14, Methyl 4-(N-(1-(4-aminophenyl)-2-(tert-butylamino)-2-oxoethyl)-propiolamido)-benzoate] to `CC#CC(=O)N(c1cccc(Cl)c1)C(C(=O)NCc1ccccc1)c1ccccc1` (centres unmarked) [A117, N-(2-(Benzylamino)-2-oxo-1-phenylethyl)-N-(3-chlorophenyl)but-2-ynamide], the EC50 rises from no more than 0.1 µM to greater than 10 µM.

`C#CC(=O)N(c1cccc(Cl)c1F)C(C(=O)NCc1ccccc1)c1ccccc1` (centres unmarked) [A81, N-(2-(Benzylamino)-2-oxo-1-phenylethyl)-N-(3-chloro-2-fluorophenyl)-propiolamide] gave an EC50 of 0.1 to 0.5 µM.
